In ChEMBL document CHEMBL4196001, “Design, semisynthesis, α-glucosidase inhibitory, cytotoxic, and antibacterial activities of p-terphenyl derivatives” (Eur J Med Chem, 2018):
Converted amounts (≈) assume the structure as drawn. Values belong to the compound of their own block, whether it stands above or below them. The source made the active and inactive calls. No cut-off for these calls is given here.

Key:
HeLa [1] = experiment: Cytotoxicity against human HeLa cells at 10 uM by SRB assay; format: functional, cell-based
[2] = Cytotoxicity against human Chang cells at 10 uM by SRB assay; format: cell-based
A549 [3] = experiment: Cytotoxicity against human A549 cells at 10 uM by SRB assay; format: functional, cell-based
Alpha glucosidase [4] = biological target: T1, Alpha glucosidase (Homo sapiens, UniProt O43451+P10253+P14410+Q2M2H8); experiment: Inhibition of human alpha-glucosidase expressed in Saccharomyces cerevisiae using p-nitrophenyl-alpha-D-glucopyranoside as substrate after 15 mins
HeLa [5] = experiment: Cytotoxicity against human HeLa cells after 3 days by hematoxylin-eosin staining-based assay; format: functional; details: 72 h, read-out: ID50 (the source's name)
HepG2 [6] = experiment: Cytotoxicity against human HepG2 cells at 10 uM by SRB assay; format: functional, cell-based
HeLa [7] = experiment: Cytotoxicity against human HeLa cells by SRB assay; format: functional, cell-based
[8] = Cytotoxicity against human Chang cells by SRB assay; format: cell-based
Alpha glucosidase [9] = biological target: T1, Alpha glucosidase; experiment: Non-competitive inhibition of human alpha-glucosidase expressed in Saccharomyces cerevisiae using p-nitrophenyl-alpha-D-glucopyranoside as substrate after 15 mins by Lineweaver-Burk plot analysis
alpha-glucosidase = experiment: Therapeutic index, ratio of CC50 for human Chang cells to IC50 for human alpha-glucosidase expressed in Saccharomyces cerevisiae; format: toxicity; details: read-out: Ratio CC50/IC50
HeLa [10] = experiment: Cell cycle arrest in human HeLa cells assessed as accumulation of cells at G2/M phase at 5 uM after 36 hrs by flow cytometric analysis (reference value: 9.92%); format: functional
HeLa [11] = experiment: Cell cycle arrest in human HeLa cells assessed as accumulation of cells at G2/M phase at 1.25 uM after 36 hrs by flow cytometric analysis (reference value: 9.92%); format: functional
HeLa [12] = experiment: Cell cycle arrest in human HeLa cells assessed as accumulation of cells at S phase at 2.5 uM after 36 hrs by flow cytometric analysis (reference value: 23.44%); format: functional
HeLa [13] = experiment: Cell cycle arrest in human HeLa cells assessed as accumulation of cells at G0/G1 phase at 5 uM after 36 hrs by flow cytometric analysis (reference value: 66.64%); format: functional
HeLa [14] = experiment: Cell cycle arrest in human HeLa cells assessed as accumulation of cells at G2/M phase at 10 uM after 36 hrs by flow cytometric analysis (reference value: 9.92%); format: functional
HeLa [15] = experiment: Cell cycle arrest in human HeLa cells assessed as accumulation of cells at G0/G1 phase at 1.25 uM after 36 hrs by flow cytometric analysis (reference value: 66.64%); format: functional
HeLa [16] = experiment: Cell cycle arrest in human HeLa cells assessed as accumulation of cells at S phase at 10 uM after 36 hrs by flow cytometric analysis (reference value: 23.44%); format: functional
HeLa [17] = experiment: Cell cycle arrest in human HeLa cells assessed as accumulation of cells at S phase at 1.25 uM after 36 hrs by flow cytometric analysis (reference value: 23.44%); format: functional
HeLa [18] = experiment: Cell cycle arrest in human HeLa cells assessed as accumulation of cells at G0/G1 phase at 10 uM after 36 hrs by flow cytometric analysis (reference value: 66.64%); format: functional
HeLa [19] = experiment: Cell cycle arrest in human HeLa cells assessed as accumulation of cells at G2/M phase at 2.5 uM after 36 hrs by flow cytometric analysis (reference value: 9.92%); format: functional
HepG2 [20] = experiment: Cytotoxicity against human HepG2 cells by SRB assay; format: functional, cell-based
HeLa [21] = experiment: Cell cycle arrest in human HeLa cells assessed as accumulation of cells at S phase at 5 uM after 36 hrs by flow cytometric analysis (reference value: 23.44%); format: functional
A549 [22] = experiment: Cytotoxicity against human A549 cells by SRB assay; format: functional, cell-based
HeLa [23] = experiment: Cell cycle arrest in human HeLa cells assessed as accumulation of cells at G0/G1 phase at 2.5 uM after 36 hrs by flow cytometric analysis (reference value: 66.64%); format: functional
MDA-MB-435 = experiment: Cytotoxicity against human MDA-MB-435 cells; format: functional, cell-based
Staphylococcus aureus = experiment: Antibacterial activity against Staphylococcus aureus after 24 hrs by broth macrodilution method; format: functional

SMILES: COc1cc(-c2ccccc2)c(OC)c(O)c1-c1ccc(O)cc1
Activity (HeLa [1]): inactive
Activity [2]: Non-Toxic
Activity (A549 [3]): inactive
IC50 (Alpha glucosidase [4]): 108.2 µM
IC50 (HeLa [5]): 32 µg/mL (≈ 99.3 µM)
Activity (HepG2 [6]): inactive

SMILES: COc1cc(-c2ccc(O)cc2)c(OC)c(O)c1-c1ccc(OCC=C(C)C)cc1
Activity (HeLa [10]): 4.33%
Activity (HeLa [11]): 10.74%
IC50 (HeLa [7]): 3.18 µM
Activity (HeLa [12]): 45.75%
Activity (HeLa [13]): 42.98%
Activity (HeLa [14]): 0.55%
Activity (HeLa [15]): 49.83%
Activity (HeLa [16]): 57.2%
Activity (HeLa [17]): 39.42%
CC50 [8]: 0.31 µM
Activity (HeLa [18]): 42.24%
Activity (HeLa [19]): 10.54%
IC50 (HepG2 [20]): 0.46 µM
IC50 (Alpha glucosidase [4]): 17.5 µM
Activity (HeLa [21]): 52.69%
IC50 (A549 [22]): 0.31 µM
Activity (HeLa [23]): 43.71%

SMILES: COc1cc(-c2ccc(O)cc2)c(OC)c(OCCC(C)C)c1-c1ccc(O)cc1
Activity (HeLa [1]): inactive
Activity [2]: Non-Toxic
Activity (A549 [3]): inactive
IC50 (Alpha glucosidase [4]): 8.58 µM
Ki (Alpha glucosidase [9]): 3.45 µM
Activity (HepG2 [6]): inactive

SMILES: COc1cc(-c2ccc(O)c(O)c2)c(OC)c(O)c1-c1ccc(O)c(O)c1
IC50 (MDA-MB-435): < 20 µM
Activity (HeLa [1]): inactive
Activity [2]: Non-Toxic
Activity (A549 [3]): inactive
IC50 (Alpha glucosidase [4]): 14 µM
Activity (HepG2 [6]): inactive

SMILES: CCCOc1ccc(-c2cc(OC)c(-c3ccc(O)cc3)c(O)c2OC)cc1
Activity (HeLa [1]): inactive
CC50 [8]: 98.5 µM
Activity (A549 [3]): inactive
selectivity ratio (alpha-glucosidase): 10
IC50 (Alpha glucosidase [4]): 10 µM
Activity (HepG2 [6]): inactive

SMILES: C=CCOc1ccc(-c2c(OC)cc(-c3ccc(O)cc3)c(OC)c2O)cc1
IC50 (HeLa [7]): 1.02 µM
CC50 [8]: 0.57 µM
MIC (Staphylococcus aureus): 6.25 µM (≈ 2.37 µg/mL)
IC50 (HepG2 [20]): 0.95 µM
IC50 (Alpha glucosidase [4]): 32.2 µM
IC50 (A549 [22]): 0.17 µM

Now from value to compound, other results behind:

IC50 (Alpha glucosidase [4]): 4.79 µM
Ki (Alpha glucosidase [9]): 1.5 µM
SMILES: COc1cc(-c2ccc(O)cc2)c(OC)c(O)c1-c1ccc(O)cc1 [TERPHENYLLIN]
IC50 (HeLa [7]): 15.1 µM
CC50 [8]: 6.95 µM
Activity (A549 [3]): inactive
IC50 (HeLa [5]): 10 µg/mL (≈ 29.6 µM)
Activity (HepG2 [6]): inactive

IC50 (Alpha glucosidase [4]): 13.2 µM
SMILES: COc1cc(-c2ccc(O)cc2)c(O)c(O)c1-c1ccc(O)cc1
Activity (HeLa [1]): inactive
CC50 [8]: 224 µM
Activity (A549 [3]): inactive
selectivity ratio (alpha-glucosidase): 17
Activity (HepG2 [6]): inactive

IC50 (Alpha glucosidase [4]): 11.3 µM
SMILES: COc1cc(-c2ccc(O)cc2)c(OC)c(O)c1-c1ccc(O)c(O)c1
IC50 (MDA-MB-435): < 20 µM
Activity (HeLa [1]): inactive
Activity [2]: Non-Toxic
Activity (A549 [3]): inactive
Activity (HepG2 [6]): inactive
